The results in this text go back to patent US8119624B2, “Fused phenyl amido heterocyclic compounds” (Pfizer Inc., priority 2006, dated 2012).

The target of this assay is T1, Full-length glucokinase (beta cell isoform) (Homo sapiens, UniProt P35557).
T1 construct: Full-length glucokinase (beta cell isoform) was His-tagged at N-terminus; His tag (N); made in house
T1 sequence (P35557 1-465): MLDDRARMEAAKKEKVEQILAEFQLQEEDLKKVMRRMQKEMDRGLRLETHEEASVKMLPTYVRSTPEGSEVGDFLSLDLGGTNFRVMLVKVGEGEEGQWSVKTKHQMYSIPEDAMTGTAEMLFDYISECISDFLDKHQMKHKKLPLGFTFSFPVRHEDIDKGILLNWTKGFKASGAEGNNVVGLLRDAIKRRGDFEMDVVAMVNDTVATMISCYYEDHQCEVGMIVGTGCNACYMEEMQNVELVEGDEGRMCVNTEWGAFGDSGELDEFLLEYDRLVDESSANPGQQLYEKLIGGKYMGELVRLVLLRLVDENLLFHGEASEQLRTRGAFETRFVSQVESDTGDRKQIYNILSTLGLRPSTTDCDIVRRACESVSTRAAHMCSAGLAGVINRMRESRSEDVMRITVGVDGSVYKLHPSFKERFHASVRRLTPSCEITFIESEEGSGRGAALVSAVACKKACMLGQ
Nature of the assay: Glucokinase biochemical assay (PK/LDH-coupled, NADH depletion at 340 nm): % activation, EC50, % max activation. Particulars: 5 mM glucose; for activation at 10 µM: read-out: % Activation at 10 uM; for EC50: read-out: EC50; for Emax: read-out: % Max Activation. In outline:
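N-terminally His-tagged full-length human beta-cell glucokinase, room temperature, 5 mM glucose, 1 mM ATP, PK/LDH-coupled with 0.7 mM NADH, 1% DMSO final. Initial velocity from the 200–900 s slope of A340 decline. % activation = (Va/Vo−1)×100, measured across compound concentrations.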

The mark [1] stands for this setting: 10 uM compound, % Activation=(Va/Vo−1)×100.
[2] abbreviates: compound at 10 uM, 1 mM ATP, room temperature.

The structures appear in SMILES notation. Read-outs that look alike come from different tables or passages of the source. Bounds are passed on as bounds.

For orientation: EC50 means the concentration that produces a half-maximal response.

Regarding `CN(C)C(=O)c1ccc(Oc2cc(C(=O)Nc3ccn(C)n3)cc3ccoc23)cc1` [Example 334, 7-{4-[(Dimethylamino)carbonyl]phenoxy}-N-(1-methyl-1H-pyrazol-3-yl)-1-benzofuran-5-carboxamide], the activation at 10 µM under setting [1] was 35%.

With `Cc1ccc(NC(=O)c2cc(Oc3ccc(C(=O)N(C)C)c(F)c3)c3ccoc3c2)nc1` [Example 342, 4-(4-(Dimethylcarbamoyl)-3-fluorophenoxy)-N-(5-methylpyridin-2-yl)benzofuran-6-carboxamide], the activation at 10 µM under setting [1] was determined as 15%.

Turning to `CCN1Cc2c(Oc3ccc(S(C)(=O)=O)cc3)cc(C(=O)Nc3ccc(C)cn3)cc2C1=O` [Example 379, 2-Ethyl-N-(5-methylpyridin-2-yl)-7-(4-(methylsulfonyl)-phenoxy)-3-oxoisoindoline-5-carboxamide], the EC50 (1 mM ATP, room temperature) amounted to 4500 nM. In addition, the activation at 10 µM under setting [2] came out at 74.1%. Moreover, the Emax (fitted maximum activation, 1 mM ATP) turned out to be 98%.

For the compound `CCc1ccc(NC(=O)c2cc(Oc3ccc(S(C)(=O)=O)cc3)c3cc(C)oc3c2)nc1` [Example 265, N-(5-Ethylpyridin-2-yl)-2-methyl-4-(4-(methylsulfonyl)-phenoxy)benzofuran-6-carboxamide], under setting [1], the activation at 10 µM amounted to 94.2%. For the same compound, the EC50 (GK activation) turned out to be 1700 nM. For the same compound, the Emax (fitted maximum activation) is 74%.

With `CN(C)C(=O)c1ccc(Oc2cc(C(=O)Nc3ccn(C)n3)cc3c2CC(C)(CO)O3)cc1F` (stereo not shown) [Example 229, 4-(4-Dimethylcarbamoyl-3-fluoro-phenoxy)-2-hydroxymethyl-2-methyl-2,3-dihydro-benzofuran-6-carboxylic acid (1-methyl-1H-pyrazol-3-yl)-amide], the activation at 10 µM under setting [1] came to 101%. The EC50 (GK activation) was determined as 120 nM. The Emax (fitted maximum activation) worked out at 97%.

As to `Cc1ccc(NC(=O)c2cc(Oc3ccc(S(C)(=O)=O)cc3)c3ccoc3c2)nc1` [Example 9, 4-(4-Methanesulfonyl-phenoxy)-benzofuran-6-carboxylic acid(5-methyl-pyridin-2-yl)-amide], under setting [1], the activation at 10 µM worked out at 72.7%. For the same compound, for the setting “GK activation”, the EC50 came to 3080 nM. Where the note is “fitted maximum activation”, the Emax turned out to be 94.7%.

Take `Cn1ccc(NC(=O)c2cc(Oc3ccc(C(=O)N4CCC4)c(F)c3)c3c(c2)OC(C)(C)C3)n1` [Example 33, 4-[4-(Azetidine-1-carbonyl)-3-fluoro-phenoxy]-2,2-dimethyl-2,3-dihydro-benzofuran-6-carboxylic acid(1-methyl-1H-pyrazol-3-yl)-amide]: the “% Activation at 10 uM” value under setting [1] is 170%. In addition, the EC50 (GK activation) is 66.1 nM. For the same compound, the “% Max Activation” value (fitted maximum activation) was 171%.

With `CN(C)C(=O)c1ccc(Oc2cc(C(=O)Nc3cnn(C)n3)cc3c2CC(C)(C)O3)cc1` [Example 153, 4-(4-Dimethylcarbamoyl-phenoxy)-2,2-dimethyl-2,3-dihydro-benzofuran-6-carboxylic acid (2-methyl-2H-[1,2,3]triazol-4-yl)-amide], under setting [1], the activation at 10 µM turned out to be 168%. Under “GK activation”, the EC50 is 150 nM. Moreover, the Emax (fitted maximum activation) came out at 161%.

For `Cn1ncc(NC(=O)c2cc(OC3CN(S(C)(=O)=O)C3)c3c(c2)OC(C)(C)C3)n1` [Example 194, 4-(1-Methanesulfonyl-azetidin-3-yloxy)-2,2-dimethyl-2,3-dihydro-benzofuran-6-carboxylic acid (2-methyl-2H-[1,2,3]triazol-4-yl)-amide], under setting [1], the activation at 10 µM was 146%. For the same compound, the EC50 (GK activation) amounted to 5000 nM. For the same compound, the Emax (fitted maximum activation) turned out to be 263%.

On to `Cc1ccc(NC(=O)c2cc(Oc3ccc(C(=O)N(C)C)cc3)c3c(c2)OC(C)(C)C3)nc1` [Example 150, 4-(4-Dimethylcarbamoyl-phenoxy)-2,2-dimethyl-2,3-dihydro-benzofuran-6-carboxylic acid (5-methyl-pyridin-2-yl)-amide], for which the activation at 10 µM under setting [1] worked out at 39.1%. Besides, the EC50 (GK activation) was determined as 110 nM. Also, the Emax (fitted maximum activation) was found to be 55%.

Consider `CN(C)C(=O)c1ccc(Oc2cc(C(=O)Nc3ccn(C)n3)cc3ccsc23)cc1F` [Example 366, 7-(4-(Dimethylcarbamoyl)-3-fluorophenoxy)-N-(1-methyl-1H-pyrazol-3-yl)benzo[b]thiophene-5-carboxamide], for which the activation at 10 µM under setting [1] was 6.4%.

As for `CC(=O)N1CC(Oc2cc(C(=O)Nc3cnn(C)n3)cc3c2CC(C)(C)O3)C1` [Example 195, 4-(1-Acetyl-azetidin-3-yloxy)-2,2-dimethyl-2,3-dihydro-benzofuran-6-carboxylic acid (2-methyl-2H-[1,2,3]triazol-4-yl)-amide], the activation at 10 µM under setting [1] stood at 98.9%. Under “GK activation”, the EC50 is more than 10000 nM.

In the case of `Cn1ccc(NC(=O)c2cc(Oc3ccc(C(=O)NCC(F)F)c(F)c3)c3c(c2)OC(C)(C)C3)n1` [Example 76, 4-[4-(2,2-Difluoro-ethylcarbamoyl)-3-fluoro-phenoxy]-2,2-dimethyl-2,3-dihydro-benzofuran-6-carboxylic acid(1-methyl-1H-pyrazol-3-yl)-amide], the activation at 10 µM under setting [1] turned out to be 203%. In addition, the EC50 (GK activation) stood at 470 nM. The Emax (fitted maximum activation) turned out to be 206%.

`CN(CC#N)C(=O)c1ccc(Oc2cc(C(=O)Nc3ccn(C)n3)cc3c2CC(C)(C)O3)cc1F` [Example 67, 4-[4-(Cyanomethyl-methyl-carbamoyl)-3-fluoro-phenoxy]-2,2-dimethyl-2,3-dihydro-benzofuran-6-carboxylic acid(1-methyl-1H-pyrazol-3-yl)-amide]: under setting [1], the activation at 10 µM was 131%. Besides, the EC50 (GK activation) worked out at 66 nM. Further, the Emax (fitted maximum activation) is 130%.

With `COCCN1Cc2c(Oc3ccc(S(C)(=O)=O)cc3)cc(C(=O)Nc3ccc(C)cn3)cc2C1=O` [Example 387, 2-(2-Methoxyethyl)-N-(5-methylpyridin-2-yl)-7-(4-(methylsulfonyl)-phenoxy)-3-oxoisoindoline-5-carboxamide], the EC50 (1 mM ATP, room temperature) is more than 10000 nM. Under setting [2], the activation at 10 µM worked out at 42.9%.

Turning to `Cn1ccc(NC(=O)c2cc(Oc3ccc(S(C)(=O)=O)cc3)c3c(c2)OC(CF)C3)n1` (stereo not shown) [Example 224, 2-Fluoromethyl-4-(4-methanesulfonyl-phenoxy)-2,3-dihydro-benzofuran-6-carboxylic acid (1-methyl-1H-pyrazol-3-yl)-amide], the activation at 10 µM under setting [1] was 142%. The concentration for a half-maximal effect (EC50) (GK activation) was found to be 2300 nM. In addition, the Emax (fitted maximum activation) amounted to 160%.

As for `CN(C)C(=O)c1ccc(Oc2cc(C(=O)Nc3ccn(C)n3)cc3c2CC(C)(C)O3)nc1` [Example 162, 6-[2,2-Dimethyl-6-(1-methyl-1H-pyrazol-3-ylcarbamoyl)-2,3-dihydro-benzofuran-4-yloxy]-N,N-dimethyl-nicotinamide], under setting [1], the activation at 10 µM stood at 105%. Further, the EC50 (GK activation) stood at 1600 nM. For the setting “fitted maximum activation”, the Emax amounted to 135%.

Turning to `Cc1cc2c(Oc3ccc(S(C)(=O)=O)cn3)cc(C(=O)Nc3cnn(C)n3)cc2o1` [Example 282, 2-Methyl-N-(2-methyl-2H-1,2,3-triazol-4-yl)-4-(5-(methylsulfonyl)pyridin-2-yloxy)benzofuran-6-carboxamide], under setting [1], the activation at 10 µM is 140%. Further, for the setting “GK activation”, the EC50 was more than 10000 nM.

Regarding `CC(CN1CCOCC1)Oc1cc(C(=O)Nc2ccn(C)n2)cc2c1CC(C)(C)O2` (stereo not shown) [Example 85, 2,2-Dimethyl-4-(1-methyl-2-morpholin-4-yl-ethoxy)-2,3-dihydro-benzofuran-6-carboxylic acid (1-methyl-1H-pyrazol-3-yl)-amide], the activation at 10 µM under setting [1] was 12%.
